Laboratory results reported in US9637483B2, “Heterocyclic compound” (TAKEDA PHARMACEUTICAL COMPANY LIMITED, priority 2013, dated 2017).

Legend:
Format in all cases: biochemical
JAK1 = target: T1, JAK1 (Homo sapiens, UniProt P23458); experiment: JAK1 enzyme inhibition test (LANCE method); settings: 1 μM test compound; for inhibition at 1 µM: read-out: JAK1 enzyme inhibitory activity (%, 1 μM)
T1 construct: purchased Invitrogen
Summary of the method: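 Inhibition expressed against no-enzyme wells (100% inhibition), from time-resolved fluorescence at 665 nm after Eu-anti-phosphotyrosine antibody/EDTA detection. Kinase reaction ran 1 h at room temperature, pH 7.5 HEPES buffer, ULight-JAK1 substrate and ATP diluted to 300 nM and 150 μM before addition.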

TYK2 = target: T2, TYK2 (Homo sapiens, UniProt P29597); experiment: TYK2 enzyme inhibition test (LANCE method); settings: 1 μM test compound; for inhibition at 1 µM: read-out: TYK2 enzyme inhibitory activity (%, 1 μM)
T2 construct: purchased Invitrogen
T2 sequence (P29597 whole entry): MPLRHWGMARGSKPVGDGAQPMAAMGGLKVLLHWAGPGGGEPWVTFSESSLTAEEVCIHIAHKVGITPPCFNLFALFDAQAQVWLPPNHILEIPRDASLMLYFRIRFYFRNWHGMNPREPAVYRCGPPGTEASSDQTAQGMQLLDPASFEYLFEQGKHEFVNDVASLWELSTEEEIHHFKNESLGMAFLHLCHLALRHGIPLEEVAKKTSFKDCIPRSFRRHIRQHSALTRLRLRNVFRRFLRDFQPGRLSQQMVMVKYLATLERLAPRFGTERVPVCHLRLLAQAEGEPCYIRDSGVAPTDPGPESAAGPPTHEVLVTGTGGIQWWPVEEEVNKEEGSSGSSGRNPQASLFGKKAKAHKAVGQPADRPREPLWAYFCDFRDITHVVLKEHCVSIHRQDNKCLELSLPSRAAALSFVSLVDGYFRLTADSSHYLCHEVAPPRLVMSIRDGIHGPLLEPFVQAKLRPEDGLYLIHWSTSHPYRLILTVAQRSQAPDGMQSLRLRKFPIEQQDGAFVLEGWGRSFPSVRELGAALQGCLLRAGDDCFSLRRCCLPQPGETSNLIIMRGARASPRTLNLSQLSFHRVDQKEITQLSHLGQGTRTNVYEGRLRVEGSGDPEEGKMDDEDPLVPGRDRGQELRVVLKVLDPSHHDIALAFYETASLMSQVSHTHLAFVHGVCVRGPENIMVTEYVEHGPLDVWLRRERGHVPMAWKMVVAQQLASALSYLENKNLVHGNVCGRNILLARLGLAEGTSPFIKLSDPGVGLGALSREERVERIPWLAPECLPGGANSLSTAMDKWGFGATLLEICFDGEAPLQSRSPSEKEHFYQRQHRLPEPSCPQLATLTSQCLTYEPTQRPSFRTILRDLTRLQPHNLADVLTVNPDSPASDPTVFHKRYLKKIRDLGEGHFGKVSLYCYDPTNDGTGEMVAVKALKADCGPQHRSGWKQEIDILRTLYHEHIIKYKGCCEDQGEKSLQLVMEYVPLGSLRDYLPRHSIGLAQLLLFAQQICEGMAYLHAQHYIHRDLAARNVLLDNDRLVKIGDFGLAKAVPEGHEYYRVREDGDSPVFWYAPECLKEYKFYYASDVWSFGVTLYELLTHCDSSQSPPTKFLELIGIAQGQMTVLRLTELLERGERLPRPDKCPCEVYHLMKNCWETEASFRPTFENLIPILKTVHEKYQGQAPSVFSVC
Summary of the method: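 TR-FRET (LANCE) readout: after 1 h room-temperature kinase reaction, EDTA plus 4 nM Eu-labelled anti-phosphotyrosine antibody added, signal at 665 nm (340 nm excitation). Reaction combined TYK2, ULight-JAK1 substrate and ATP, prepared at 375 ng/mL, 300 nM and 30 μM before addition, in pH 7.5 HEPES/MgCl2 buffer; enzyme-free wells define full inhibition.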

JAK3 = target: T3, JAK3 (Homo sapiens, UniProt P52333); experiment: JAK3 enzyme inhibition test (LANCE method); settings: 1 μM test compound; for inhibition at 1 µM: read-out: JAK3 enzyme inhibitory activity (%, 1 μM)
T3 construct: purchased Invitrogen
T3 sequence (P52333 1-1124): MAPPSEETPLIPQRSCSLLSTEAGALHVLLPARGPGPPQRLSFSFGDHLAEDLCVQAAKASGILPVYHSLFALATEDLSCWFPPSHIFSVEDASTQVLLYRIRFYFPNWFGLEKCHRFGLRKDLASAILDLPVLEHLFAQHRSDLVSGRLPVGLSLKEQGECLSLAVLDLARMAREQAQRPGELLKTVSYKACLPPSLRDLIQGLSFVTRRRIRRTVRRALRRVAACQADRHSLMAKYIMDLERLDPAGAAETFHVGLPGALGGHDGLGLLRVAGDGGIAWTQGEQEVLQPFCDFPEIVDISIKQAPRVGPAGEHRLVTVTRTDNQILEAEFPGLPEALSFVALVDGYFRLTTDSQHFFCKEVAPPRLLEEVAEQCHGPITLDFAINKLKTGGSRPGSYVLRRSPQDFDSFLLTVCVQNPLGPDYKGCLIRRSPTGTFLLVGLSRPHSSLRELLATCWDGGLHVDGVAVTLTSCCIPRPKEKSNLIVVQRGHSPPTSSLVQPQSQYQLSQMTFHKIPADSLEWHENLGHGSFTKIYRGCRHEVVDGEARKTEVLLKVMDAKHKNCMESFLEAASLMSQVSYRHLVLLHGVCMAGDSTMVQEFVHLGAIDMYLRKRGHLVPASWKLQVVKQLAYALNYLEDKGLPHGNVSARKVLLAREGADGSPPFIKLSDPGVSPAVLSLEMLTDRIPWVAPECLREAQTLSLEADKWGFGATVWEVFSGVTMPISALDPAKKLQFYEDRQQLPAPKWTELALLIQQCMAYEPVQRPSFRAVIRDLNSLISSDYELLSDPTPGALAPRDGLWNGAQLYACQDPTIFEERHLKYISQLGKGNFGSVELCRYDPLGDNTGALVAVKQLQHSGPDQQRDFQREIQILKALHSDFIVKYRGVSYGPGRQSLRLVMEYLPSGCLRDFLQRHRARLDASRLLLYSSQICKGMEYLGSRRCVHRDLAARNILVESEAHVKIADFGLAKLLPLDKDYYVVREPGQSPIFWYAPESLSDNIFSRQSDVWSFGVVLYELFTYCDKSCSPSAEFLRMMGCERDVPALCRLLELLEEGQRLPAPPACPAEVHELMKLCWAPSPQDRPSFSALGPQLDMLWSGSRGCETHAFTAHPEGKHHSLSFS
Summary of the method: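 TR-FRET (LANCE) read: 1 h room-temperature reaction, EDTA quench, Eu-anti-phosphotyrosine antibody, emission 665 nm after 340 nm excitation. Added solutions held 12 ng/mL JAK3, 300 nM ULight-JAK1 substrate and 15 μM ATP (pH 7.5 HEPES). Activity expressed against no-enzyme wells defined as full inhibition.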

JAK2 = target: T4, JAK2 (Homo sapiens, UniProt O60674); experiment: JAK2 enzyme inhibition test (LANCE method); settings: 1 μM test compound; for inhibition at 1 µM: read-out: JAK2 enzyme inhibitory activity (%, 1 μM)
T4 construct: purchased Invitrogen
T4 sequence (O60674 whole entry): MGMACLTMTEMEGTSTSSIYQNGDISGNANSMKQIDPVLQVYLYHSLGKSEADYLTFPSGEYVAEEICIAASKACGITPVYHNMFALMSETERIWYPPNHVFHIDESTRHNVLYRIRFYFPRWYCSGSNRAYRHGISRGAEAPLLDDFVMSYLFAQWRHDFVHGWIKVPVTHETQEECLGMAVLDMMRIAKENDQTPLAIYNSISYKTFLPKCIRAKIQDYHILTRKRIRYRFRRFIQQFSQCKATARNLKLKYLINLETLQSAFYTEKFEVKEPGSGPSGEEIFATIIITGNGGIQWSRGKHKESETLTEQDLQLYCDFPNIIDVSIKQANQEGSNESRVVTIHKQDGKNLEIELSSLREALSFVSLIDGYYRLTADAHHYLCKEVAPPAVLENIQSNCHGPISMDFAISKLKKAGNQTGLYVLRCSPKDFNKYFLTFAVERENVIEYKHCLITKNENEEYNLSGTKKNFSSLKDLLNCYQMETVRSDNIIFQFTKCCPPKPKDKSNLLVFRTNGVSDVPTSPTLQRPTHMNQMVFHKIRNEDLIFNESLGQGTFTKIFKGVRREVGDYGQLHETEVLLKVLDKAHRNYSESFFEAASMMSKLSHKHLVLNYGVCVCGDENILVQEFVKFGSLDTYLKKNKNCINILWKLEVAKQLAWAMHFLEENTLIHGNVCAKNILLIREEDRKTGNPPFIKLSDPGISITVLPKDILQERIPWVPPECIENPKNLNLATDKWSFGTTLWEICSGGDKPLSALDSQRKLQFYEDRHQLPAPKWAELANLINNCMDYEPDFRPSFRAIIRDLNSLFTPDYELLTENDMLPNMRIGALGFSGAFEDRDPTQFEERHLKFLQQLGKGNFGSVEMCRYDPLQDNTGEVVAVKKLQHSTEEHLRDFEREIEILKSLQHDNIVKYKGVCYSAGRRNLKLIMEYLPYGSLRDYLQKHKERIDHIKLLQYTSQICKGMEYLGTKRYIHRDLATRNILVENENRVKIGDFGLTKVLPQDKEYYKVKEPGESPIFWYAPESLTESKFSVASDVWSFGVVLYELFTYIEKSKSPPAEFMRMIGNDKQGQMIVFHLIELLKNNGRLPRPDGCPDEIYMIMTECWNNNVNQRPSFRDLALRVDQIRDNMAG
Summary of the method: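 TR-FRET (LANCE) read-out, ex 340/em 665 nm with 100 μs delay, after 1 hr room-temperature detection with europium anti-phosphotyrosine antibody and 20 mM EDTA. The preceding 1 hr kinase reaction combined JAK2, ULight-JAK1 substrate and ATP, added as 6 ng/mL, 300 nM and 45 μM solutions; enzyme-free wells defined 100% inhibition.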

T1 sequence (P23458 whole entry): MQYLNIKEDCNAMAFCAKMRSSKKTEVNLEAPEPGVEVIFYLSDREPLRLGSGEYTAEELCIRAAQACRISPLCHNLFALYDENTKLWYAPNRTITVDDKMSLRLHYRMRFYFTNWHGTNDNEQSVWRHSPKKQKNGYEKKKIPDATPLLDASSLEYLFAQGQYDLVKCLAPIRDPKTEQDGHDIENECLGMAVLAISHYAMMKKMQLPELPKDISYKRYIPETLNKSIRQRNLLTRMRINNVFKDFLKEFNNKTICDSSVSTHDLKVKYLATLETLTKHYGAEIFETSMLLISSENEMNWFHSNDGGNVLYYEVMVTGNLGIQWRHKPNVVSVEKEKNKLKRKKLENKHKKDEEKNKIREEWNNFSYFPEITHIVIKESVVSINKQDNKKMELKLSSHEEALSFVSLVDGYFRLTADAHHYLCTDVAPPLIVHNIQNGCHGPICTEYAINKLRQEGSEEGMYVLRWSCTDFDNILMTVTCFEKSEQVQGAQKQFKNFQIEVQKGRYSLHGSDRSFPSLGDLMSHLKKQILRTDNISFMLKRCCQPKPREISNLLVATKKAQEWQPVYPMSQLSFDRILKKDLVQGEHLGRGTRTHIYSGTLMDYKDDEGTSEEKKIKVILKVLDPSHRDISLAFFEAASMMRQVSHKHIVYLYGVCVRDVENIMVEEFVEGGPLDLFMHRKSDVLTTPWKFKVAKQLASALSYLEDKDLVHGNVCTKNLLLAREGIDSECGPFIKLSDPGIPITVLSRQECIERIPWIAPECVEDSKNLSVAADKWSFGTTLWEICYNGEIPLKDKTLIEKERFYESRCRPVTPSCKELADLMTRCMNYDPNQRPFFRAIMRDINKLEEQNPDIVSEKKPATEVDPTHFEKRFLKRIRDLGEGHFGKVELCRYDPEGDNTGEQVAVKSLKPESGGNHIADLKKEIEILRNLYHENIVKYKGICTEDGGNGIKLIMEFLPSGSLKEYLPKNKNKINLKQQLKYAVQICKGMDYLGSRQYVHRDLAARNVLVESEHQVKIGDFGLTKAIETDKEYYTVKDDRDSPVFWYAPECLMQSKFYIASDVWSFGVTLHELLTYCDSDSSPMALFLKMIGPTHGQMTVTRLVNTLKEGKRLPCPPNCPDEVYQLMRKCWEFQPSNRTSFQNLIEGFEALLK

SMILES	inhibition at 1 µM (JAK1) [%]	inhibition at 1 µM (TYK2) [%]	inhibition at 1 µM (JAK3) [%]	inhibition at 1 µM (JAK2) [%]	JAK1 enzyme inhibitory activity (%, 1 μM) (JAK1) [%]	TYK2 enzyme inhibitory activity (%, 1 μM) (TYK2) [%]	JAK3 enzyme inhibitory activity (%, 1 μM) (JAK3) [%]	JAK2 enzyme inhibitory activity (%, 1 μM) (JAK2) [%]
CC(C)[C@@H](C)n1cc(-c2cc(C(C)(C)O)n(C)n2)c2[nH]nc(N)c2c1=O [Example 100, 3-amino-7-(5-(2-hydroxypropan-2-yl)-1-methyl-1H-pyrazol-3-yl)-5-((2R)-3-methylbutan-2-yl)-1,5-dihydro-4H-pyrazolo[4,3-c]pyridin-4-one]	82	96	86	65				
CC(C)[C@H](C)n1cc(-c2cc(N(C)C(C)C)n(C)n2)c2[nH]nc(N)c2c1=O [Example 101, 3-amino-7-(5-(isopropyl(methyl)amino)-1-methyl-1H-pyrazol-3-yl)-5-((2S)-3-methylbutan-2-yl)-1,5-dihydro-4H-pyrazolo[4,3-c]pyridin-4-one]	96	100	99	97				
CC(C)[C@H](C)n1cc(-c2cc(N3CCN(S(=O)(=O)C(C)C)CC3)n(C)n2)c2[nH]nc(N)c2c1=O [Example 102, 3-amino-7-(5-(4-(isopropylsulfonyl)piperazin-1-yl)-1-methyl-1H-pyrazol-3-yl)-5-((2S)-3-methylbutan-2-yl)-1,5-dihydro-4H-pyrazolo[4,3-c]pyridin-4-one]	97	100	99	98				
CC(C)[C@H](C)n1cc(-c2cc(N3CCCC3CN(C)C)n(C)n2)c2[nH]nc(N)c2c1=O (stereo partly drawn) [Example 103, 3-amino-7-(5-(2-((dimethylamino)methyl)pyrrolidin-1-yl)-1-methyl-1H-pyrazol-3-yl)-5-((2S)-3-methylbutan-2-yl)-1,5-dihydro-4H-pyrazolo[4,3-c]pyridin-4-one]		96	97	93	51			
CC(C)[C@H](C)n1cc(-c2cc(N3CCCC3CN(C)C)n(C)n2)c2[nH]nc(N)c2c1=O (stereo partly drawn) [Example 104, 3-amino-7-(5-(2-((dimethylamino)methyl)pyrrolidin-1-yl)-1-methyl-1H-pyrazol-3-yl)-5-((2S)-3-methylbutan-2-yl)-1,5-dihydro-4H-pyrazolo[4,3-c]pyridin-4-one]					72	100	98	96
CC(C)[C@H](C)n1cc(-c2cc(N3CC4(COC4)C3)n(C)n2)c2[nH]nc(N)c2c1=O [Example 105, 3-amino-5-((2S)-3-methylbutan-2-yl)-7-(1-methyl-5-(2-oxa-6-azaspiro[3.3]hept-6-yl)-1H-pyrazol-3-yl)-1,5-dihydro-4H-pyrazolo[4,3-c]pyridin-4-one]	97	99	99	99				
CC(C)[C@H](C)n1cc(-c2cc(N3CCC(F)(F)C3)n(C)n2)c2[nH]nc(N)c2c1=O [Example 106, 3-amino-7-(5-(3,3-difluoropyrrolidin-1-yl)-1-methyl-1H-pyrazol-3-yl)-5-((2S)-3-methylbutan-2-yl)-1,5-dihydro-4H-pyrazolo[4,3-c]pyridin-4-one]	97	100	99	99				
CC(C)[C@H](C)n1cc(-c2cc(N3CCN(S(=O)(=O)C4CC4)CC3)n(C)n2)c2[nH]nc(N)c2c1=O [Example 107, 3-amino-7-(5-(4-(cyclopropylsulfonyl)piperazin-1-yl)-1-methyl-1H-pyrazol-3-yl)-5-((2S)-3-methylbutan-2-yl)-1,5-dihydro-4H-pyrazolo[4,3-c]pyridin-4-one]	97	100	99	98				
CC(C)[C@H](C)n1cc(-c2cc(N3CCN(S(C)(=O)=O)CC3)n(C)n2)c2[nH]nc(N)c2c1=O [Example 108, 3-amino-5-((2S)-3-methylbutan-2-yl)-7-(1-methyl-5-(4-(methylsulfonyl)piperazin-1-yl)-1H-pyrazol-3-yl)-1,5-dihydro-4H-pyrazolo[4,3-c]pyridin-4-one]	98	100	99	98				
COC(C)(C)c1cc(-c2cn([C@@H](C)C(C)C)c(=O)c3c(N)n[nH]c23)nn1C [Example 109, 3-amino-7-(5-(2-methoxypropan-2-yl)-1-methyl-1H-pyrazol-3-yl)-5-((2S)-3-methylbutan-2-yl)-1,5-dihydro-4H-pyrazolo[4,3-c]pyridin-4-one]	98	99	99	99				
COC1(c2cc(-c3cn([C@@H](C)C(C)C)c(=O)c4c(N)n[nH]c34)nn2C)CCS(=O)(=O)CC1 [Example 110, 3-amino-7-(5-(4-methoxy-1,1-dioxidotetrahydro-2H-thiopyran-4-yl)-1-methyl-1H-pyrazol-3-yl)-5-((2S)-3-methylbutan-2-yl)-1,5-dihydro-4H-pyrazolo[4,3-c]pyridin-4-one]	89	100	99	99				
COC1(c2cc(-c3cn([C@@H](C)C(C)C)c(=O)c4c(N)n[nH]c34)nn2C)CN(C(=O)C(C)C)C1 [Example 111, 3-amino-7-(5-(1-isobutyryl-3-methoxyazetidin-3-yl)-1-methyl-1H-pyrazol-3-yl)-5-((2S)-3-methylbutan-2-yl)-1,5-dihydro-4H-pyrazolo[4,3-c]pyridin-4-one]	83	100	98	97				
CC(C)C(C#N)n1cc(-c2cc(N3CCOCC3)n(C)n2)c2[nH]nc(N)c2c1=O (stereo not drawn) [Example 113, 2-(3-amino-7-(1-methyl-5-(morpholin-4-yl)-1H-pyrazol-3-yl)-4-oxo-1,4-dihydro-5H-pyrazolo[4,3-c]pyridin-5-yl)-3-methylbutanenitrile]		99	99		97			98
CC(C)C(C#N)n1cc(-c2cc(N3CCOCC3)n(C)n2)c2[nH]nc(N)c2c1=O (stereo not drawn) [Example 114, 2-(3-amino-7-(1-methyl-5-(morpholin-4-yl)-1H-pyrazol-3-yl)-4-oxo-1,4-dihydro-5H-pyrazolo[4,3-c]pyridin-5-yl)-3-methylbutanenitrile]					68	95	84	74
CC(C)C(C1CC1)n1cc(-c2cc(N3CCOCC3)n(C)n2)c2[nH]nc(N)c2c1=O (stereo not drawn) [Example 115, 3-amino-5-(1-cyclopropyl-2-methylpropyl)-7-(1-methyl-5-(morpholin-4-yl)-1H-pyrazol-3-yl)-1,5-dihydro-4H-pyrazolo[4,3-c]pyridin-4-one]	93	100	99	91				
